Results on 13 compounds are retold here after US20220281879A1, “SALT AND CRYSTAL FORMS OF AN ACTIVIN RECEPTOR-LIKE KINASE INHIBITOR” (Blueprint Medicines Corporation, priority 2019, published 2022).

A short description of series [1]: Humidity exposure at 75% relative humidity / 40° C. for one week with XRPD. The following applies: 75% RH / 40° C.
Protocol: The Sesqui-Succinate obtained in Example 2.1 was exposed to 75% relative humidity at 40° C. for one week. The samples were placed in a 4 mL vial covered with a Kimwipe® and then placed in a 20 mL vial containing 3-4 mL saturated NaCl in water. The 20 mL vials were sealed and held at 40° C. Solids were collected for XRPD analysis after one week.
HCl salt Monohydrate Form A was placed at 40° C./75% relative humidity for one week. About 10 mg sample was placed in a 4 mL vial covered with a Kimwipe®. The vial was then placed inside a 20 mL sealed vial containing saturated aqueous sodium chloride.
Series [2] in a line: Drying and humidity exposure (>90% RH) with XRPD. The following applies: for physical stability on humidity exposure: >90% RH, overnight / one day; for physical stability on humidity exposure / stability on drying and humidity exposure: XRPD; for physical stability in humid environment, prolonged: >90% relative humidity, days to one week; for stability on drying and humidity exposure: dried under vacuum at 50° C., then >90% RH one day.
Protocol: XRPD analysis was done in three stages. XRPD of the wet cake was done for all samples (where solids were observed). Unique solids were then left on XRPD plates and dried under vacuum at 50° C. for at least 3 hours. XRPD of unique dry solids was then done. Solids were then exposed to >90% relative humidity for one day and XRPD on resulted solids was done. The humid environment was generated by placing a beaker of saturated potassium sulfate in water in a sealed container. All XRPD patterns were compared to counter ion XRPD patterns and known free molecule patterns.
A crystalline form of the free base was exposed to high humidity (>90% RH) overnight. The humid environment was generated by placing a beaker of saturated potassium sulfate in water in a sealed container.

Series [3] can be described thus: Solubility at 37° C. in water and simulated fluids (FaSSIF, FaSSGF). In kind it is physicochemical. Conditions: for Solubility at 37° C. FaSSGF: fasted state simulated gastric fluid; for Solubility at 37° C. FaSSIF: fasted state simulated intestinal fluid. The source says:
Crystalline salts were characterized and evaluated for viability based on melting point, crystallinity, stability on drying and humidity exposure, water solubility, polymorphism, and acceptability of counter-ion.

The nature of series [4]: Dynamic Vapor Sorption (DVS). Type of series: physicochemical. The following applies: for DVS Mass Change: between 2 and 95% relative humidity at 25° C.; for XRPD after DVS measurement: after 2-95% RH cycle. How it is done: Dynamic Vapor Sorption (DVS) was done using a DVS Intrinsic 1. The sample was loaded into a sample pan and suspended from a microbalance. A typical sample mass for DVS measurement is 25 mg. Nitrogen gas bubbled through distilled water provides the desired relative humidity. The sample was held for a minimum of 5 min at each level and only progressed to the next humidity level if there was <0.002% change in weight between measurements (interval: 60 seconds) or […] had elapsed. A typical measurement comprises the steps: • 1—Equilibrate at 50% RH • 2—50% to 2%. (50%, 40%, 30%, 20%, 10% and 2%) • a. Hold minimum of 5 mins and maximum of 60 minutes at each humidity. • The pass criteria is less than 0.002% change • 3—2% to 95% (2%, 10%, 20%, 30%, 40%, 50%, 60%, 70%, 80%, 90%, 95%) • a. Hold minimum of 5 mins and maximum of 60 minutes at each humidity.
The pass criteria is less than 0.002% change • 4—95% to 2% (95%, 80%, 70%, 60%, 50%, 40%, 30%, 20%, 10%, 2%) • a. Hold minimum of 5 mins and maximum of 60 minutes at each humidity. • The pass criteria is less than 0.002% change • 5—2% to 50% (2%, 10%, 20%, 30%, 40%, 50%) • a. Hold minimum of 5 mins and maximum of 60 minutes at each humidity. • The pass criteria is less than 0.002% change

Series [5] in a line: Solubility in organic solvent systems at room temperature. Type of series: physicochemical. The following applies: organic solvent or mixture, most organic solvents tested.
A short description of series [6]: Exposure to dry conditions and re-humidification with XRPD. In kind it is physicochemical. How it is done: The 1:1 Compound (I) Crystalline HCl salt Monohydrate obtained from Example 3.1 was exposed to various drying conditions and then analyzed by XRPD.
The conditions were: (1) room temperature in vial containing P2O5 at 50° C., (2) 60° C. under vacuum, and (3) heating to 140° C. in DSC.
The HCl salt exposed to P2O5 at 50° C. was sampled for XRPD at the 7 day mark.

A short description of series [7]: Variable humidity and variable temperature XRPD (VH-XRPD, VT-XRPD). The following applies: for variable humidity XRPD: change of crystalline structure: 0-90% RH; for variable temperature XRPD: change of crystalline structure: ambient to 160° C. In kind it is physicochemical. How it is done: Powder X-ray diffraction was done using a Rigaku MiniFlex 600 or a Bruker D8 Advance equipped with Lynxeye detector in reflection mode (i.e. Bragg-Brentano geometry). Samples were prepared on Si zero-return wafers. A typical scan is from 2θ of 4 to 30 degrees, with step size 0.05 degrees over five minutes with 40 kV and 15 mA. A high-resolution scan is from 2θ of 4 to 40 degrees, with step size 0.05 degrees over thirty minutes with 40 kV and 15 mA. Typical parameters for XRPD are listed below.

The mark [8] stands for this setting: listed as free base of Compound (I).
Setting [9] is: listed as HCl salt Monohydrate Form A.
Where [10] appears, read: listed as Compound (I) Sesqui-Succinate salt Form A.
The mark [11] stands for this setting: listed as Compound (I) Sesqui-Succinate Form A.

SMILES strings stand for the structures. Converted amounts (≈) assume the structure as drawn. “Also recorded” adds a separate entry of the source. Structures can show the parent of a compound that is named as a salt. Where two headings read alike, the source gives them in different places.

A word on the solubility: it is how much of the substance goes into solution per volume. By Solubility is commonly meant the dissolved amount per volume that the medium holds.

In the case of `CCOC1(c2ccc(-c3cc4c(N5CCN(C(=O)O[C@@H]6CCOC6)CC5)ccnn4c3)nc2)CCN(C(C)C)CC1` [Amorphous solid (Compound (I) Sesqui-Succinate)], the “physical stability after one week humidity exposure” value in series [1] is listed as “crystalline Form A”.
On to `CCOC1(c2ccc(-c3cc4c(N5CCN(C(=O)O[C@@H]6CCOC6)CC5)ccnn4c3)nc2)CCN(C(C)C)CC1` [Benzoate], for which the “physical stability on humidity exposure” value in series [2] (listed as benzoic acid) was “did not deliquesce”. In addition, in series [3] (salt screening evaluation), the “water solubility (in words)” value is “poor water solubility”.
Regarding `CCOC1(c2ccc(-c3cc4c(N5CCN(C(=O)O[C@@H]6CCOC6)CC5)ccnn4c3)nc2)CCN(C(C)C)CC1` [Besylate], the “physical stability on humidity exposure” value in series [2] is “deliquesced”; in series [2] (listed as besylate), “deliquescence”.
In the case of `CCOC1(c2ccc(-c3cc4c(N5CCN(C(=O)O[C@@H]6CCOC6)CC5)ccnn4c3)nc2)CCN(C(C)C)CC1` [Compound (I)], the “DVS mass change occurring above 70% relative humidity” value in series [4] (25° C., above 70% RH) is on record as 0.46-0.53 wt. %. The “DVS Mass Change” value in series [4] (listed as Freebase) and in series [4] (setting [8]) was 0.88-0.92 wt. % in each case. Moreover, the “physical stability on humidity exposure” value in series [2] (listed as free base) was “lost some crystallinity”. For the same compound, the entries for the “physical stability in humid environment, prolonged” value in series [2] (listed as free base), in series [2] (setting [8]) and in series [2] (listed as freebase) were “deliquesced”, “physically unstable” and “turned into a sticky gum”, respectively. In addition, the “behaviour on exposure to water” value in series [2] (setting [8]) was “tends to gum”; in series [2] (listed as freebase), “gums in water”. For the same compound, the solubility in series [5] is above 200 mg/mL. Also, the “Solubility at 37° C. FaSSGF” value was 7.29 mg/mL (≈ 13 mM) in series [3] (listed as Freebase) and around 17 mg/mL (≈ 30.2 mM) in series [3] (listed as freebase). The “Solubility at 37° C. FaSSIF” value is recorded as 17.9 mg/mL (≈ 31.8 mM) in series [3] (listed as Freebase) and around 7 mg/mL (≈ 12.4 mM) in series [3] (listed as freebase). The “Solubility at 37° C. Water” value in series [3] (water, listed as freebase) is 0.08 mg/mL (≈ 0.142 mM).
On to `CCOC1(c2ccc(-c3cc4c(N5CCN(C(=O)O[C@@H]6CCOC6)CC5)ccnn4c3)nc2)CCN(C(C)C)CC1` [Form D], for which the “physical stability after one week humidity exposure” value in series [1] is recorded as “converted to Form A (monohydrate)”. In series [2], the “physical stability on humidity exposure” value was “converted to Form A (monohydrate)”. Also, the “form conversion on exposure to ambient conditions” value in series [6] (bench, 22-23° C., 28-35% RH, 2.25 hours) was “converted to Form A”.
With `CCOC1(c2ccc(-c3cc4c(N5CCN(C(=O)O[C@@H]6CCOC6)CC5)ccnn4c3)nc2)CCN(C(C)C)CC1` [Form I], the “physical stability on humidity exposure” value in series [2] is reported as “partially converted to Form A”.
On to `CCOC1(c2ccc(-c3cc4c(N5CCN(C(=O)O[C@@H]6CCOC6)CC5)ccnn4c3)nc2)CCN(C(C)C)CC1` [Mono-HCl Form A], for which, in series [7] (setting [9]), the “variable humidity XRPD: change of crystalline structure” value is reported as “small shift” and the “variable temperature XRPD: change of crystalline structure” value is listed as “does not appear to collapse and/or re-arrange”. Besides, the “DVS mass change occurring below 20% relative humidity” value in series [4] (25° C., below 20% RH) was 0.99-1.11 wt. %. In series [4] (setting [9]), the “XRPD after DVS measurement” value is listed as “extra peaks were observed” and the “DVS Mass Change” value is on record as 1.30-1.43 wt. %. The “DVS Mass Change” value in series [4] was 1.30-1.43 wt. %. Moreover, the “hygroscopicity (in words)” value in series [4] (listed as 1:1 hydrochloric acid salt) was “non-hygroscopic”. For the same compound, the “physical stability after one week humidity exposure” value in series [1] (setting [9]) is recorded as “minor peak shifts”. Moreover, the “physical stability on humidity exposure” value in series [2] (listed as HCl (1 eq.)) is reported as “did not deliquesce”. Also, the “XRPD after exposure to drying conditions” value in series [6] (P2O5 at 50° C., 60° C. under vacuum, heating to 140° C. in DSC) is given as “a new XRPD pattern was observed”. For the same compound, in series [3], the “solubility in water and in simulated gastric fluids (in words)” value is “good solubility”; the “Solubility at 37° C. FaSSGF” value is given as 6.96 mg/mL; the “Solubility at 37° C. FaSSIF” value is reported as 30.9 mg/mL. Besides, in series [3] (listed as mono-HCl salt), the “Solubility at 37° C. FaSSGF” value was above 30 mg/mL and the “Solubility at 37° C. FaSSIF” value is around 7 mg/mL. The “Solubility at 37° C. Water” value in series [3] (water) is reported as 33.4 mg/mL. Moreover, the “Solubility at 37° C. Water” value in series [3] (water, listed as mono-HCl salt) was above 30 mg/mL.
Take `CCOC1(c2ccc(-c3cc4c(N5CCN(C(=O)O[C@@H]6CCOC6)CC5)ccnn4c3)nc2)CCN(C(C)C)CC1` [Salicylate]: the “physical stability on humidity exposure” value in series [2] (listed as salicylic acid) was “did not deliquesce”.
For the compound `CCOC1(c2ccc(-c3cc4c(N5CCN(C(=O)O[C@@H]6CCOC6)CC5)ccnn4c3)nc2)CCN(C(C)C)CC1` [Succinate Form A], in series [7] (setting [10]), the “variable humidity XRPD: change of crystalline structure” value is “no change in the crystalline structure” and the “variable temperature XRPD: change of crystalline structure” value was “no change in the crystalline structure”. In series [4], the “hygroscopicity (in words)” value is “less hygroscopic than the mono-HCl salt and freebase”; the “DVS Mass Change” value is listed as 0.59-0.60 wt. %. In addition, the “DVS mass change occurring above 80% relative humidity” value in series [4] (25° C., above 80% RH) was 0.34-0.35 wt. %. Besides, in series [4] (setting [11]), the “XRPD after DVS measurement” value is listed as “remained as Form-A” and the “DVS Mass Change” value is on record as 0.59-0.60 wt. %. Besides, the “hygroscopicity (in words)” value in series [4] (listed as 1.5:1 succinic acid salt) is recorded as “non-hygroscopic”. The “physical stability after one week humidity exposure” value in series [1] (setting [11]) is reported as “physically stable by XRPD”. Moreover, in series [2] (listed as succinic acid), the “physical stability on humidity exposure” value is on record as “did not deliquesce”. In addition, in series [2], the “stability on drying and humidity exposure” value is “stable on drying and humidity exposure”. Moreover, in series [3], the “solubility in water and in simulated gastric fluids (in words)” value was “good solubility”; the “Solubility at 37° C. FaSSGF” value is above 25.9 mg/mL; the “Solubility at 37° C. FaSSIF” value is reported as above 22.2 mg/mL. Further, in series [3] (in all fluids), the “solubility in water and simulated fluids (all fluids)” value was above 22 mg/mL. Besides, the “Solubility at 37° C. Water” value in series [3] (water) is listed as above 34.0 mg/mL. This compound came in with a solubility in series [3] (water, FaSSIF and FaSSGF (all fluids), thermodynamic from solid, in all fluids) above 22 mg/mL.
Take `CCOC1(c2ccc(-c3cc4c(N5CCN(C(=O)O[C@@H]6CCOC6)CC5)ccnn4c3)nc2)CCN(C(C)C)CC1` [bis-HCl]: the results for the “physical stability on humidity exposure” value in series [2] and in series [2] (listed as 2:1 HCl) were “deliquesced” and “deliquescence”, respectively.
In the case of `CCOC1(c2ccc(-c3cc4c(N5CCN(C(=O)O[C@@H]6CCOC6)CC5)ccnn4c3)nc2)CCN(C(C)C)CC1` [fumarate Form B], the “stability on drying and humidity exposure” value in series [2] is “stable on drying and humidity exposure”.
For the compound `CCOC1(c2ccc(-c3cc4c(N5CCN(C(=O)O[C@@H]6CCOC6)CC5)ccnn4c3)nc2)CCN(C(C)C)CC1` [fumarate], the “solubility in water and in simulated gastric fluids (in words)” value in series [3] is on record as “good solubility”.
Regarding `CCOC1(c2ccc(-c3cc4c(N5CCN(C(=O)O[C@@H]6CCOC6)CC5)ccnn4c3)nc2)CCN(C(C)C)CC1` [maleate], the “physical stability on humidity exposure” value in series [2] was “deliquescence; also recorded: deliquesced”; in series [2] (listed as maleic acid) it was “deliquesced”.
